Source: publication PMC7414031, “Correlation between hemolytic activity, cytotoxicity and systemic in vivo toxicity of synthetic antimicrobial peptides” (Scientific Reports, 2020)
Converted amounts (≈) assume the structure as drawn. Square brackets hold non-standard residues; d marks the D form. Peptide text beside a SMILES is read from it. N(1-naphthylmethyl)Gly = O=C(O)CNCc1cccc2ccccc12; Nphe = O=C(O)CNCc1ccccc1; NBuGly = CCCCNCC(=O)O

Assays:
Staphylococcus aureus = test system: Staphylococcus aureus; design: method as in PMID 30842436; conditions: cited from earlier work
rat erythrocytes = assay: in vitro; type: cell-based, rat (Sprague–Dawley); conditions: for IC10 haemolysis: rat erythrocytes; for IC50: red cells of rat
Method: (§1) The haemolytic activity of the 24 structurally related peptides (Table 1) was evaluated in erythrocytes from four different species (human, canine, bovine and rat) employing standard methodology. The subsequent release of haemoglobin was used to assess haemolytic activity as function of peptide and peptidomimetic concentration, with concentrations ranging from 0.15 to 150 µM (Presented in whole in Supplementary information Table S1–S4).
(§2) Human and rat (Sprague–Dawley) blood samples were purchased by Bioreclamation IVT (Westbury, NY, USA), collected in tubes containing heparin as anticoagulant and stored at 4 °C before use. Dog and bovine whole blood was collected from in-house animals at Zoetis Animal Health, Kalamazoo, Michigan and stored at 4 °C in tubes containing heparin as anticoagulant. 10 mL of each whole blood sample were centrifuged at 1,500 × g for 5 min and the resulting plasma fraction was removed from the samples. The pellets were washed with an equal volume (10 mL) of saline, mixing by inversion. The centrifuging and washing steps were repeated 5 times. After the last washing step, a volume of PBS was added, and the resulting samples were diluted 1:10 with PBS to yield an RBC concentration of ~ 5 × 10^8 RBC/mL. The assay was performed in a 384-well polypropylene microplate (Greiner 784201, Greiner Bio-One International, GMBH) through a Bravo Liquid Handling Platform 384 system (Agilent Technologies, Santa Clara, CA, USA) according to the previously published procedures. The compounds were tested in serial 1:1 dilutions in PBS, with final concentrations ranging from 150 to 1.2 µM. Melittin was used as reference lytic peptide. 1% TritonX100 and PBS were used as positive and negative (diluent) controls, respectively. The final concentrations were obtained by adding to the wells 7 µL of each solution, melittin or PBS, followed by 63 µL of RBCs to each well. The plate was sealed, shaken on a plate shaker for 20 s, incubated for one hour at 37 °C. Finally, it was centrifuged at 1,500 × g for 5 min at room temperature. 60 µL of supernatants were removed from all plate wells via a Bravo 384 robot and transferred to a flat-bottomed 384-well plate (Greiner UV-Star #7810801, Greiner Bio-One International, GMBH). The plate was centrifuged at 1,000 g for 1 min to remove air bubbles and optical density was measured at 405 nm using a plate reader. Percentage of haemolysis was calculated with the following equation: %haemolysis=(absorbance of test sample)-absorbance of diluent/absorbance of positive control-absorbance of diluent×100.

in vitro [1] = type: cell-based, rat (Sprague–Dawley); conditions: Sprague-Dawley, rat
Method: as §1, §2

[2] = test system: Staphylococcus pseudintermedius; conditions: cited from earlier work
human erythrocytes = assay: in vitro; type: cell-based; conditions: for IC10 haemolysis: human erythrocytes; for IC50: red cells of human
Method: as §1, §2

in vitro [3] = type: cell-based, human; conditions: human
Method: as §1, §2

canine erythrocytes = assay: in vitro; type: cell-based, dog; conditions: for IC10 haemolysis: canine erythrocytes; for IC50: red cells of canine
Method: as §1, §2

in vitro [4] = type: cell-based, dog; conditions: dog
Method: as §1, §2

Pseudomonas aeruginosa = test system: Pseudomonas aeruginosa; design: method as in PMID 30842436; conditions: cited from earlier work
bovine erythrocytes = assay: in vitro; type: cell-based; conditions: bovine erythrocytes
Method: as §1, §2

in vitro [5] = type: cell-based, bovine; conditions: bovine
Method: as §1, §2

Row | SMILES | MIC against Staphylococcus aureus (Staphylococcus aureus) [µg/mL] | IC10 haemolysis (rat erythrocytes) [µM] | IC50 (rat erythrocytes) [µM] | hemolysis at 1 h, 150 µM (in vitro [1]) [%] | MIC against Staphylococcus pseudintermedius [2] [µg/mL] | Haemolytic activity (in words) (human erythrocytes) | IC10 haemolysis (human erythrocytes) [µM] | IC50 (human erythrocytes) [µM] | hemolysis at 1 h, 150 µM (in vitro [3]) [%] | IC10 haemolysis (canine erythrocytes) [µM] | IC50 (canine erythrocytes) [µM] | hemolysis at 1 h, 150 µM (in vitro [4]) [%] | MIC against Pseudomonas aeruginosa (Pseudomonas aeruginosa) [µg/mL] | IC10 haemolysis (bovine erythrocytes) [µM] | hemolysis at 1 h, 150 µM (in vitro [5]) [%] | Haemolysis at 80 µM (in words) (rat erythrocytes) | Haemolysis at 80 µM (in words) (human erythrocytes) | Haemolysis at 80 µM (in words) (canine erythrocytes)
1 | CCCCN(CC(=O)N[C@@H](CCCCN)C(=O)N(CC(=O)N(CC(=O)N(CC(N)=O)Cc1cccc2ccccc12)Cc1ccccc1)Cc1cccc2ccccc12)C(=O)[C@H](CCCCN)NC(=O)[C@@H](N)CCCCN [Compound 14, Lys-Lys-(N-Bu)Gly-Lys-(N1-Nal)Gly-(N-Phe)Gly-(N1-Nal)Gly] (H-KK[NBuGly]K[N(1-naphthylmethyl)Gly][Nphe][N(1-naphthylmethyl)Gly]-NH2) | 8 to 16 | 93.1 | > 150 | 31.6 | 4 (≈ 3.79 µM) | amongst the top five most haemolytic compounds | 54.0 | 118 | 66.4 | 26.23 | > 150 | 28.1 | 32 (≈ 30.3 µM) | 123.9 | 13.9 |  |  | 
2 | CC(C)C[C@H](NC(=O)[C@H](CCCCN)NC(=O)[C@H](Cc1cccc2ccccc12)NC(=O)[C@H](Cc1ccccc1)NC(=O)[C@@H](N)Cc1cccc2ccccc12)C(=O)N[C@@H](CCCCN)C(=O)N[C@@H](CCCCN)C(N)=O [Compound 16, (1-Nal)Ala-Phe-(1-Nal)Ala-Lys-Leu-Lys-Lys] (HELM PEPTIDE1{[N[C@@H](Cc1cccc2ccccc12)C(=O)[*:2]].F.[O=C([C@H](Cc1cccc2ccccc12)N[*:1])[*:2]].K.L.K.K.[am]}$$$$V2.0) | 16 to 32 | 145.0 | > 150 | 11 | 8 to 16 |  | 47.4 | 134 | 55.5 | 16.4 | > 150 | 27.7 | 64 (≈ 60.6 µM) | 45.2 | 30.6 |  |  | 
3 | CC(C)C[C@H](NC(=O)[C@H](CCCCN)NC(=O)[C@H](CCCCN)NC(=O)[C@@H](N)CCCCN)C(=O)N[C@@H](Cc1cccc2ccccc12)C(=O)N[C@@H](Cc1ccc(O)cc1)C(=O)N[C@@H](Cc1cccc2ccccc12)C(N)=O [Compound 19, Lys-Lys-Lys-Leu(1-Nal)Ala-Tyr-(1-Nal)Ala] (HELM PEPTIDE1{K.K.K.L.[O=C([C@H](Cc1cccc2ccccc12)N[*:1])[*:2]].Y.[O=C([C@H](Cc1cccc2ccccc12)N[*:1])[*:2]].[am]}$$$$V2.0) | > 64 | 45.0 | 74.9 | 101 |  |  | 13.5 | 51.1 | 82.7 | 13.2 | 20.8 | 101 | > 64 |  | < 8 | near total haemolysis | near total haemolysis | near total haemolysis
4 | CCCC[C@H](NC(=O)[C@H](CCCCN)NC(=O)[C@H](CCCCN)NC(=O)[C@@H](N)CCCCN)C(=O)N[C@@H](Cc1ccc2ccccc2c1)C(=O)N[C@@H](Cc1ccc(O)cc1)C(=O)N[C@@H](Cc1ccc2ccccc2c1)C(N)=O [Compound 22, Lys-Lys-Lys-Nle-(2-Nal)Ala-Tyr-(2-Nal)Ala] (HELM PEPTIDE1{K.K.K.[Nle].[O=C([C@H](Cc1ccc2ccccc2c1)N[*:1])[*:2]].Y.[O=C([C@H](Cc1ccc2ccccc2c1)N[*:1])[*:2]].[am]}$$$$V2.0) | 64 (≈ 59.7 µM) | 83.0 | > 150 | 24.2 | 2 to 4 |  | 88.3 | > 150 | 23.7 | 30.9 | 71.2 | 83 | 64 (≈ 59.7 µM) |  | < 8 |  |  | 
